# Results reported in ChEMBL document CHEMBL3885881, “DrugMatrix”.
# Species on record: Rattus norvegicus
# Test: DrugMatrix - Regimen: Daily Repeat
# Format: toxicity, organism-based, Sprague-Dawley
# Parameters: regimen Daily Repeat, gender Male, age 6-8 weeks
# Details: in vivo, po, route oral GAVAGE, vehicle 100 % WATER; for ABSOLUTE BASOPHIL / ABSOLUTE EOSINOPHIL / ABSOLUTE LYMPHOCYTE / ABSOLUTE MONOCYTE / ABSOLUTE SEGMENTED NEUTROPHIL / BASOPHIL / EOSINOPHIL / ERYTHROCYTE COUNT / HEMATOCRIT / HEMOGLOBIN / LEUKOCYTE COUNT / LYMPHOCYTE / MEAN CORPUSCULAR HEMOGLOBIN / MEAN CORPUSCULAR HEMOGLOBIN CONCENTRATION / MEAN CORPUSCULAR VOLUME / MONOCYTE / NEUTROPHIL / NUCLEATED RED BLOOD CELLS / PLATELET COUNT: tissue Blood; for ALANINE AMINOTRANSFERASE / ALBUMIN / ALKALINE PHOSPHATASE / ASPARTATE AMINOTRANSFERASE / BLOOD UREA NITROGEN / CARBON DIOXIDE / CHLORIDE / CHOLESTEROL / CREATINE PHOSPHOKINASE / CREATININE / GLUCOSE / LACTATE DEHYDROGENASE / LIPASE / PHOSPHORUS / POTASSIUM / SODIUM / TOTAL BILIRUBIN / TOTAL PROTEIN / URIC ACID: tissue Plasma
# [1] = 0 mg/kg, 72 h, dose level Control, time 3 day
# [2] = 0 mg/kg, 120 h, dose level Control, time 5 day
# [3] = 160 mg/kg, 72 h, dose level Low, time 3 day
structure (smiles),measurement,setting,value
N[C@@H](Cc1ccc(O)c(O)c1)C(=O)O [LEVODOPA],ABSOLUTE BASOPHIL,[1],0 CELLS/uL
same,ABSOLUTE EOSINOPHIL,[1],86.33 CELLS/uL
same,ABSOLUTE LYMPHOCYTE,[1],12090.17 CELLS/uL
same,ABSOLUTE MONOCYTE,[1],166.67 CELLS/uL
same,ABSOLUTE SEGMENTED NEUTROPHIL,[1],1090.17 CELLS/uL
same,BASOPHIL,[1],0%
same,EOSINOPHIL,[1],0.67%
same,ERYTHROCYTE COUNT,[1],5.57 x10E6/uL
same,HEMATOCRIT,[1],35.33%
same,HEMOGLOBIN,[1],13.83 G/DL
same,LEUKOCYTE COUNT,[1],13.43 x10E3/uL
same,LYMPHOCYTE,[1],89.83%
same,MEAN CORPUSCULAR HEMOGLOBIN,[1],24.88 pg
same,MEAN CORPUSCULAR HEMOGLOBIN CONCENTRATION,[1],39.15 G/DL
same,MEAN CORPUSCULAR VOLUME,[1],63.52 fL
same,MONOCYTE,[1],1.17%
same,NEUTROPHIL,[1],8.33%
same,NUCLEATED RED BLOOD CELLS,[1],0 /100WBC
same,PLATELET COUNT,[1],1181.33 x10E3/uL
same,ALANINE AMINOTRANSFERASE,[1],48.33 u/L
same,ALBUMIN,[1],4.1 G/DL
same,ALKALINE PHOSPHATASE,[1],395 u/L
same,ASPARTATE AMINOTRANSFERASE,[1],81.83 u/L
same,BLOOD UREA NITROGEN,[1],15.83 mg/dL
same,CARBON DIOXIDE,[1],24.17 mmol/L
same,CHLORIDE,[1],103.83 MEQ/L
same,CHOLESTEROL,[1],63.67 mg/dL
same,CREATINE PHOSPHOKINASE,[1],372.83 u/L
same,CREATININE,[1],0.18 mg/dL
same,GLUCOSE,[1],173.83 mg/dL
same,LACTATE DEHYDROGENASE,[1],188.33 u/L
same,LIPASE,[1],9.5 u/L
same,PHOSPHORUS,[1],11.95 mg/dL
same,POTASSIUM,[1],5.99 MEQ/L
same,SODIUM,[1],144.43 MEQ/L
same,TOTAL BILIRUBIN,[1],0.15 mg/dL
same,TOTAL PROTEIN,[1],5.95 G/DL
same,URIC ACID,[1],1.82 mg/dL
same,ABSOLUTE BASOPHIL,[2],0 CELLS/uL
same,ABSOLUTE EOSINOPHIL,[2],26.67 CELLS/uL
same,ABSOLUTE LYMPHOCYTE,[2],7583.83 CELLS/uL
same,ABSOLUTE MONOCYTE,[2],131.33 CELLS/uL
same,ABSOLUTE SEGMENTED NEUTROPHIL,[2],674.83 CELLS/uL
same,BASOPHIL,[2],0%
same,EOSINOPHIL,[2],0.33%
same,ERYTHROCYTE COUNT,[2],5.78 x10E6/uL
same,HEMATOCRIT,[2],36.48%
same,HEMOGLOBIN,[2],14.03 G/DL
same,LEUKOCYTE COUNT,[2],8.42 x10E3/uL
same,LYMPHOCYTE,[2],89.83%
same,MEAN CORPUSCULAR HEMOGLOBIN,[2],24.3 pg
same,MEAN CORPUSCULAR HEMOGLOBIN CONCENTRATION,[2],38.52 G/DL
same,MEAN CORPUSCULAR VOLUME,[2],63.15 fL
same,MONOCYTE,[2],1.67%
same,NEUTROPHIL,[2],8.17%
same,NUCLEATED RED BLOOD CELLS,[2],0 /100WBC
same,PLATELET COUNT,[2],1186.67 x10E3/uL
same,ALANINE AMINOTRANSFERASE,[2],50.17 u/L
same,ALBUMIN,[2],4.07 G/DL
same,ALKALINE PHOSPHATASE,[2],367.5 u/L
same,ASPARTATE AMINOTRANSFERASE,[2],81.67 u/L
same,BLOOD UREA NITROGEN,[2],16.17 mg/dL
same,CARBON DIOXIDE,[2],32.33 mmol/L
same,CHLORIDE,[2],101.5 MEQ/L
same,CHOLESTEROL,[2],65.33 mg/dL
same,CREATINE PHOSPHOKINASE,[2],255.33 u/L
same,CREATININE,[2],0.17 mg/dL
same,GLUCOSE,[2],139.33 mg/dL
same,LACTATE DEHYDROGENASE,[2],95 u/L
same,LIPASE,[2],10.5 u/L
same,PHOSPHORUS,[2],10.38 mg/dL
same,POTASSIUM,[2],6.11 MEQ/L
same,SODIUM,[2],145.55 MEQ/L
same,TOTAL BILIRUBIN,[2],0.17 mg/dL
same,TOTAL PROTEIN,[2],5.98 G/DL
same,URIC ACID,[2],0.93 mg/dL
same,ABSOLUTE BASOPHIL,[3],0 CELLS/uL
same,ABSOLUTE EOSINOPHIL,[3],48 CELLS/uL
same,ABSOLUTE LYMPHOCYTE,[3],13173.67 CELLS/uL
same,ABSOLUTE MONOCYTE,[3],48 CELLS/uL
same,ABSOLUTE SEGMENTED NEUTROPHIL,[3],2130.33 CELLS/uL
same,BASOPHIL,[3],0%
same,EOSINOPHIL,[3],0.33%
same,ERYTHROCYTE COUNT,[3],5.35 x10E6/uL
same,HEMATOCRIT,[3],34.57%
same,HEMOGLOBIN,[3],13.5 G/DL
same,LEUKOCYTE COUNT,[3],15.4 x10E3/uL
same,LYMPHOCYTE,[3],85.67%
same,MEAN CORPUSCULAR HEMOGLOBIN,[3],25.23 pg
same,MEAN CORPUSCULAR HEMOGLOBIN CONCENTRATION,[3],39.07 G/DL
same,MEAN CORPUSCULAR VOLUME,[3],64.63 fL
same,MONOCYTE,[3],0.33%
same,NEUTROPHIL,[3],13.67%
same,NUCLEATED RED BLOOD CELLS,[3],0 /100WBC
same,PLATELET COUNT,[3],1267 x10E3/uL
same,ALANINE AMINOTRANSFERASE,[3],43.67 u/L
same,ALBUMIN,[3],4 G/DL
same,ALKALINE PHOSPHATASE,[3],349.67 u/L
same,ASPARTATE AMINOTRANSFERASE,[3],93.67 u/L
same,BLOOD UREA NITROGEN,[3],15.67 mg/dL
same,CARBON DIOXIDE,[3],22 mmol/L
same,CHLORIDE,[3],103.33 MEQ/L
same,CHOLESTEROL,[3],61 mg/dL
same,CREATINE PHOSPHOKINASE,[3],665.33 u/L
same,CREATININE,[3],0.14 mg/dL
same,GLUCOSE,[3],158.33 mg/dL
same,LACTATE DEHYDROGENASE,[3],401 u/L
same,LIPASE,[3],8.67 u/L
same,PHOSPHORUS,[3],12.63 mg/dL
same,POTASSIUM,[3],5.77 MEQ/L
same,SODIUM,[3],144.43 MEQ/L
same,TOTAL BILIRUBIN,[3],0.2 mg/dL
same,TOTAL PROTEIN,[3],5.73 G/DL
same,URIC ACID,[3],1.87 mg/dL
